{"source": "patent US20240294508A1", "about": "“RIP1 MODULATORS INCLUDING AZETIDINE CYCLIC UREAS, PREPARATIONS, AND USES THEREOF” (SIRONAX LTD., priority 2021, published 2024)", "data": [{"tested_on": "HT-29 cells", "test": "HT29 cells 0FBS assay in vitro: TNF-α/SMAC mimetic/zVAD-FMK induced necroptosis, CellTiter-Glo cell viability (RIP1 inhibitory activity)", "assay_type": "cell-based", "conditions": "Homo sapiens, FBS free medium, TNF-α (10 ng/ml) + SMAC mimetic (6 uM) + zVAD-FMK (10 μM), 20 hours, geometric mean EC50", "excerpt": "Protocol for HT29 Cells 0FBS Assay In Vitro\n• Cell line: HT-29 (ATCC® HTB-38™) • Culture medium: McCOY's 5A, Gibco, Cat No. 16600-082 • FBS, Gibco, Cat No. 10099-141C • Trypsin: Gibco, Cat No. 25200-056 • DMSO: Sigma, Cat No. 67-68-5, 1L • Assay plate: Corning #3903 • Compound dilution plate: Corning #3357 • Inducers: TNFα, GenScript, Cat No. Z01001-50, • SmacM, Cat. No., HY-15989, MedChemExpress (MCE) • Z_VAD FMK, TargetMol, T6013 • Cell Titer-Glo® Luminescent Cell Viability Assay Kit: Promega, Cat No. G7573 • EnVision: PerkinElmer, 2105-0010\n2. Cell Seeding of HT-29 Cells\n1) HT-29 cells were checked every day to make sure they are healthy and growing as expected. They were split sub-culturing when were approximately 80% confluent.\n2) First pre-warm the culture medium of McCOY's 5A medium (Gibco, Cat No. 16600-082) with 10% FBS (Gibco, Cat No. 10099-141C) in 37° C. water bath for at least 30 min.\n3) Growing cells to desired level of confluency 80% in a T75 flask, aspirate the medium, and wash with warm PBS two times.\n4) Add 2-3 ml fresh warm trypsin (Gibco, Cat No. 25200-056) solution. Transfer the flask to a 37° C. incubator.\n5) After 5 minutes, tap the side of the flask, and examine the flask under a microscope for lifting. If necessary, return the cells to the incubator for an additional 5-10 minutes, with occasional tapping, until lifting is complete.\n6) Quickly neutralize the trypsin reaction by adding 6-9 ml cell culture medium, then transfer the cells to sterile 15 ml conical tubes. Pellet the cells by centrifugation at 300×g for 7 minutes, then decant the supernatant.\n7) Resuspend the cells in fresh cell culture medium. Do cell counting with hemocytometer.\n8) Seed 100 μl of 5,000 cells into each well of the sterile 96-well cell culture plate (Corning 3903) and culture overnight at 37° C. with 5% CO2.\n3. Compounds Titration and Treatment of HT-29 Cells\n1) All batches of compounds (CPDs0 (e.g., compound 1-169) were dissolved in DMSO (Dimethyl sulfoxide) as 20 mM stock solution.\n2) Take 3 ul 20 mM stock solution of CPDs to […] DMSO and mix well, continue the titration ratio of 1:3 (20 ul CPDs+40 ul DMSO), e.g., to give solutions of CPDS at 6.6 mM, 2.2 mM, etc., till the 10 points end.\n3) Take out assay plates with HT-29 cells from incubator, remove all culture medium then wash 1 time with 1×PBS, and change fresh McCOY's 5A medium of FBS free with a cocktail of TNF-α (10 ng/ml), the SMAC mimetic (6 uM) and zVAD-FMK (10 μM) to stimulate the HT-29 cells to increase pRIPK1 levels and necroptosis.\n4) Add 0.5 μL of the diluted compound to the corresponding 96-well assay plates.\n5) Incubate the assay plates for 20 hours at 37° C. with 5% CO2.\n4. Performing Cell Viability Detection of HT-29 Cells after Treated with Compounds\n1) The CellTiter-Glo® Luminescent Cell Viability Assay was employed to detect the ATP levels of viable HT-29 cells.\n2) Equilibrate the CellTiter-Glo® buffer and the lyophilized substrate to room temperature prior to use.\n3) Resuspend the CellTiter-Glo® substrate with CellTiter-Glo® buffer, mix by gently vortexing to obtain a homogeneous solution.\n4) Pipette 20 μl the enzyme/substrate mixture by multi-channel pipette into the 96-well assay plates from step 5) under the Compounds titration and treatment stage.\n5) Place the plates on an orbital shaker and mix the contents for 3 minutes to induce cell lysis.\n6) Then allow the plates to incubate at room temperature for 10 minutes to stabilize luminescent signal.\n7) Read and record luminescence signal with EnVision.\n8) The geometric mean EC50 of the compounds were calculated from 10 points response dose with duplicate. In Table 2, activity is provided as follows: +++=0.1 nM≤EC50<100 nM; ++=100 nM≤EC5 1000 nM; […].", "units": {"EC50": "nM"}, "values": [{"smiles": "Cc1cnn(C)c1-c1cc(OC2CN(C(=O)N3N=CC[C@H]3c3cc(F)cc(C#N)c3)C2)c(F)cn1", "note": "[Compound 11, (S)-3-(1-(3-((2-(1,4-dimethyl-1H-pyrazol-5-yl)-5-fluoropyridin-4-yl)oxy)azetidine-1-carbonyl)-4,5-dihydro-1H-pyrazol-5-yl)-5-fluorobenzonitrile]", "EC50": "0.1 to 100"}, {"smiles": "CCn1nccc1-c1cc(OC2CN(C(=O)N3N=CC[C@H]3c3cc(F)cc(C#N)c3)C2)c(F)cn1", "note": "[Compound 12, (S)-3-(1-(3-((2-(1-ethyl-1H-pyrazol-5-yl)-5-fluoropyridin-4-yl)oxy)azetidine-1-carbonyl)-4,5-dihydro-1H-pyrazol-5-yl)-5-fluorobenzonitrile]", "EC50": "0.1 to 100"}, {"smiles": "Cn1ccnc1-c1ccc(F)c(OC2CN(C(=O)N3N=CC[C@H]3c3cc(F)cc(C#N)c3)C2)n1", "note": "[Compound 13, (S)-3-fluoro-5-(1-(3-((3-fluoro-6-(1-methyl-1H-imidazol-2-yl)pyridin-2-yl)oxy)azetidine-1-carbonyl)-4,5-dihydro-1H-pyrazol-5-yl)benzonitrile]", "EC50": "0.1 to 100"}, {"smiles": "Cn1cc(-c2cc(OC3CN(C(=O)N4N=CC[C@H]4c4cc(F)cc(C#N)c4)C3)c(F)cn2)nn1", "note": "[Compound 14, (S)-3-fluoro-5-(1-(3-((5-fluoro-2-(1-methyl-1H-1,2,3-triazol-4-yl)pyridin-4-yl)oxy)azetidine-1-carbonyl)-4,5-dihydro-1H-pyrazol-5-yl)benzonitrile]", "EC50": "100 to 1000"}, {"smiles": "Cn1ncc(-c2cc(OC3CN(C(=O)N4N=CC[C@H]4c4cc(F)cc(C#N)c4)C3)c(F)cn2)n1", "note": "[Compound 15, (S)-3-fluoro-5-(1-(3-((5-fluoro-2-(2-methyl-2H-1,2,3-triazol-4-yl)pyridin-4-yl)oxy)azetidine-1-carbonyl)-4,5-dihydro-1H-pyrazol-5-yl)benzonitrile]", "EC50": "100 to 1000"}, {"smiles": "Cn1ncc(Cl)c1-c1ncc(F)c(OC2CN(C(=O)N3N=CC[C@H]3c3cc(F)cc(C#N)c3)C2)n1", "note": "[Compound 16]", "EC50": "0.1 to 100"}, {"smiles": "Cc1nscc1-c1cc(OC2CN(C(=O)N3N=CC[C@H]3c3cc(F)cc(C#N)c3)C2)c(F)cn1", "note": "[Compound 17, (S)-3-fluoro-5-(1-(3-((5-fluoro-2-(3-methylisothiazol-4-yl)pyridin-4-yl)oxy)azetidine-1-carbonyl)-4,5-dihydro-1H-pyrazol-5-yl)benzonitrile]", "EC50": "0.1 to 100"}, {"smiles": "Cc1ncsc1-c1cc(OC2CN(C(=O)N3N=CC[C@H]3c3cc(F)cc(C#N)c3)C2)c(F)cn1", "note": "[Compound 18, (S)-3-fluoro-5-(1-(3-((5-fluoro-2-(4-methylthiazol-5-yl)pyridin-4-yl)oxy)azetidine-1-carbonyl)-4,5-dihydro-1H-pyrazol-5-yl)benzonitrile]", "EC50": "0.1 to 100"}, {"smiles": "Cc1n[nH]c(C)c1-c1cc(OC2CN(C(=O)N3N=CC[C@H]3c3cc(F)cc(C#N)c3)C2)c(F)cn1", "note": "[Compound 19, (S)-3-(1-(3-((2-(3,5-dimethyl-1H-pyrazol-4-yl)-5-fluoropyridin-4-yl)oxy)azetidine-1-carbonyl)-4,5-dihydro-1H-pyrazol-5-yl)-5-fluorobenzonitrile]", "EC50": "0.1 to 100"}, {"smiles": "COCCn1nc(C)c(-c2cc(OC3CN(C(=O)N4N=CC[C@H]4c4cc(F)cc(C#N)c4)C3)c(F)cn2)c1C", "note": "[Compound 20, (S)-3-fluoro-5-(1-(3-((5-fluoro-2-(1-(2-methoxyethyl)-3,5-dimethyl-1H-pyrazol-4-yl)pyridin-4-yl)oxy)azetidine-1-carbonyl)-4,5-dihydro-1H-pyrazol-5-yl)benzonitrile]", "EC50": "0.1 to 100"}, {"smiles": "Cc1nn(CC(N)=O)c(C)c1-c1cc(OC2CN(C(=O)N3N=CC[C@H]3c3cc(F)cc(C#N)c3)C2)c(F)cn1", "note": "[Compound 21, (S)-2-(4-(4-((1-(5-(3-cyano-5-fluorophenyl)-4,5-dihydro-1H-pyrazole-1-carbonyl)azetidin-3-yl)oxy)-5-fluoropyridin-2-yl)-3,5-dimethyl-1H-pyrazol-1-yl)acetamide]", "EC50": "0.1 to 100"}, {"smiles": "Cc1ncn(C)c1-c1cc(OC2CN(C(=O)N3N=CC[C@H]3c3cc(F)cc(C#N)c3)C2)c(F)cn1", "note": "[Compound 22, (S)-3-(1-(3-((2-(1,4-dimethyl-1H-imidazol-5-yl)-5-fluoropyridin-4-yl)oxy)azetidine-1-carbonyl)-4,5-dihydro-1H-pyrazol-5-yl)-5-fluorobenzonitrile]", "EC50": "0.1 to 100"}, {"smiles": "Cc1cn(C)c(-c2cc(OC3CN(C(=O)N4N=CC[C@H]4c4cc(F)cc(C#N)c4)C3)c(F)cn2)n1", "note": "[Compound 23, (S)-3-(1-(3-((2-(1,4-dimethyl-1H-imidazol-2-yl)-5-fluoropyridin-4-yl)oxy)azetidine-1-carbonyl)-4,5-dihydro-1H-pyrazol-5-yl)-5-fluorobenzonitrile]", "EC50": "0.1 to 100"}, {"smiles": "Cc1cnn(C)c1-c1ncc(F)c(OC2CN(C(=O)N3N=CC[C@H]3c3cncc(F)c3)C2)n1", "note": "[Compound 24, (S)-(3-((2-(1,4-dimethyl-1H-pyrazol-5-yl)-5-fluoropyrimidin-4-yl)oxy)azetidin-1-yl)(5-(5-fluoropyridin-3-yl)-4,5-dihydro-1H-pyrazol-1-yl)methanone]", "EC50": "0.1 to 100"}, {"smiles": "Cc1cnn(C)c1-c1ncc(F)c(OC2CN(C(=O)N3N=CC[C@H]3c3cc(F)cc(C#N)c3)C2)n1", "note": "[Compound 25, (S)-3-(1-(3-((2-(1,4-dimethyl-1H-pyrazol-5-yl)-5-fluoropyrimidin-4-yl)oxy)azetidine-1-carbonyl)-4,5-dihydro-1H-pyrazol-5-yl)-5-fluorobenzonitrile]", "EC50": "0.1 to 100"}, {"smiles": "Cn1ncc(C#N)c1-c1cc(OC2CN(C(=O)N3N=CC[C@H]3c3cncc(F)c3)C2)c(F)cn1", "note": "[Compound 26, (S)-5-(5-fluoro-4-((1-(5-(5-fluoropyridin-3-yl)-4,5-dihydro-1H-pyrazole-1-carbonyl)azetidin-3-yl)oxy)pyridin-2-yl)-1-methyl-1H-pyrazole-4-carbonitrile]", "EC50": "0.1 to 100"}, {"smiles": "Cn1nccc1-c1cc(OC2CN(C(=O)N3N=CC[C@H]3c3cncc(F)c3)C2)c(F)cn1", "note": "[Compound 27, (S)-(3-((5-fluoro-2-(1-methyl-1H-pyrazol-5-yl)pyridin-4-yl)oxy)azetidin-1-yl)(5-(5-fluoropyridin-3-yl)-4,5-dihydro-1H-pyrazol-1-yl)methanone]", "EC50": "0.1 to 100"}, {"smiles": "CCn1nccc1-c1cc(OC2CN(C(=O)N3N=CC[C@H]3c3cncc(F)c3)C2)c(F)cn1", "note": "[Compound 28, (S)-(3-((2-(1-ethyl-1H-pyrazol-5-yl)-5-fluoropyridin-4-yl)oxy)azetidin-1-yl)(5-(5-fluoropyridin-3-yl)-4,5-dihydro-1H-pyrazol-1-yl)methanone]", "EC50": "0.1 to 100"}, {"smiles": "Cc1cc(-c2cc(OC3CN(C(=O)N4N=CC[C@H]4c4cncc(F)c4)C3)c(F)cn2)n(C)n1", "note": "[Compound 29, (S)-(3-((2-(1,3-dimethyl-1H-pyrazol-5-yl)-5-fluoropyridin-4-yl)oxy)azetidin-1-yl)(5-(5-fluoropyridin-3-yl)-4,5-dihydro-1H-pyrazol-1-yl)methanone]", "EC50": "0.1 to 100"}, {"smiles": "Cc1cnn(C)c1-c1cc(OC2CN(C(=O)N3N=CC[C@H]3c3cncc(F)c3)C2)c(F)cn1", "note": "[Compound 30, (S)-(3-((2-(1,4-dimethyl-1H-pyrazol-5-yl)-5-fluoropyridin-4-yl)oxy)azetidin-1-yl)(5-(5-fluoropyridin-3-yl)-4,5-dihydro-1H-pyrazol-1-yl)methanone]", "EC50": "0.1 to 100"}]}]}
